Assay [1] concerns the target T1, Bcl-2-related protein A1 (Mus musculus, UniProt Q07440).
T1 sequence (Q07440 whole entry): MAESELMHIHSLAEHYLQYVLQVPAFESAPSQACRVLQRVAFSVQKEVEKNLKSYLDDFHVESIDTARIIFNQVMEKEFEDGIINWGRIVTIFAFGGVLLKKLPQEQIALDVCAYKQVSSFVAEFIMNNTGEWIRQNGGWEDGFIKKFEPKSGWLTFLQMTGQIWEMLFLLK
As to the kind of experiment: small-molecule antagonists of Bfl-1/BH3 interaction – biochemical, TR-FRET, mouse Bfl-1, confirmation (AID 621).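 Note: TR-FRET binding of GST-Bfl-1 to FITC-labelled Bid peptide via terbium antibody.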

Assay [2] has as its target T1, Bcl-2-related protein A1. The experiment in a line: Bfl-1 binding inhibitors, SAR follow-up, biochemical, fluorescence polarization (AID 1070). A general note: Polarisation of emitted light reports the rotation of a fluorescent probe.
Assay [3] deals with Peroxisome proliferator-activated receptor gamma/Nuclear receptor coactivator 1 (Homo sapiens, UniProt P37231). As to the kind of experiment: TR-FRET dose response biochemical High Throughput Screening assay for agonists of the steroid receptor coactivator 1 (SRC-1) recruitment by the peroxisome proliferator-activated receptor gamma (PPAR gamma): non-selective agonists. [Related pubchem assays (depositor defined):AID1300, AID1808, AID504735, AID631]. The class given is protein assay. (In general: Time-resolved FRET reads energy transfer from a long-lived donor to a nearby acceptor.)

Assay [4] deals with Peroxisome proliferator-activated receptor gamma/Nuclear receptor coactivator 3 (Homo sapiens, UniProt P37231). As to the kind of experiment: TR-FRET dose response biochemical High Throughput Screening assay for agonists of the steroid receptor coactivator 3 (SRC-3) recruitment by the peroxisome proliferator-activated receptor gamma (PPAR gamma): non-selective agonists. [Related pubchem assays: 1301 (Confirmation screen.), 1048 (Primary screen.)]. The assay is classed as functional.

The next assay addresses NS3 (Hepatitis C virus, UniProt A3EZJ3). The experiment in a line: PubChem AID 2173. Also on record: species or system Hepacivirus hominis.
Assay [5] concerns the target Peroxisome proliferator-activated receptor gamma/Nuclear receptor coactivator 2 (Homo sapiens, UniProt P37231). The experiment in a line: TR-FRET dose response biochemical High Throughput Screening assay for agonists of the steroid receptor coactivator 2 (SRC-2) recruitment by the peroxisome proliferator-activated receptor gamma (PPAR gamma): non-selective agonists. [Related pubchem assays: 1297, 1032 ]. The class given is functional.

The target in another assay is Cysteine protease ATG4B (Homo sapiens, UniProt Q9Y4P1). The assay is classed as functional.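 Note: Fluorescence-based dose-response confirmation assay measuring inhibition of ATG4B activity.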
The next assay deals with Phospholipase A2 (Homo sapiens, UniProt P04054). The class given is functional.
The target in assay [6] is DNA (cytosine-5)-methyltransferase 1 (Homo sapiens, UniProt P26358). The experiment in a line: inhibition of DNA methylation by DNMT1 – biochemical, fluorescent molecular beacon, confirmation (AID 602386). The assay is classed as functional.
Assay [7] in a line: Luminescence Cell-Based Dose Confirmation HTS to Identify Inhibitors of Polyadenylation. The class given is functional.
Assay [8] is described as follows: HPDE-C7 pancreatic duct cell viability loss – fluorescence, HTS (AID 430). The class given is functional, cell-based. Particulars: Homo sapiens.
Assay [9] in a line: viability loss of HPDE-C7K cells – cell-based, fluorescence, HTS, primary screen (AID 431). The conditions noted are these: Homo sapiens. The class given is functional.
A short description of assay [10]: viability of PTEN-deleted HCT116 cells – cell-based, HCT116 PTEN knockout, dose response (AID 1047).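 Note: HCT116 colon tumor cells with PTEN knocked out; cells exposed to compound for 60 hours before readout; potency for loss of cell viability measured by luminescence.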 The class given is functional.
Assay [11] in a line: viability of HCT116 lacking mutant beta-catenin – cell-based, human colon tumor, dose response (AID 1045).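 Note: HCT116 colon tumor cells with beta catenin knocked out; cells exposed to compound for 60 hours.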 The class given is functional.
For assay [12], the target named is FAD-linked sulfhydryl oxidase ALR (Homo sapiens, UniProt P55789). As to the kind of experiment: ALR-catalysed DTT oxidation blockers – biochemical, H2O2 detection, luminescence, cherry-pick, dose response (AID 493248).
The nature of assay [13]: A High Throughput Confirmatory Assay used to Identify Novel Compounds that Inhibit Mycobacterium Tuberculosis in the absence of Glycerol. The assay is classed as functional.
A short description of assay [14]: cells. The class given is functional.
Another assay has as its target T2, Estrogen receptor (Homo sapiens, UniProt P03372).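 Note: potency for inhibiting coactivator peptide recruitment to the receptor.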
T2 sequence (P03372 whole entry): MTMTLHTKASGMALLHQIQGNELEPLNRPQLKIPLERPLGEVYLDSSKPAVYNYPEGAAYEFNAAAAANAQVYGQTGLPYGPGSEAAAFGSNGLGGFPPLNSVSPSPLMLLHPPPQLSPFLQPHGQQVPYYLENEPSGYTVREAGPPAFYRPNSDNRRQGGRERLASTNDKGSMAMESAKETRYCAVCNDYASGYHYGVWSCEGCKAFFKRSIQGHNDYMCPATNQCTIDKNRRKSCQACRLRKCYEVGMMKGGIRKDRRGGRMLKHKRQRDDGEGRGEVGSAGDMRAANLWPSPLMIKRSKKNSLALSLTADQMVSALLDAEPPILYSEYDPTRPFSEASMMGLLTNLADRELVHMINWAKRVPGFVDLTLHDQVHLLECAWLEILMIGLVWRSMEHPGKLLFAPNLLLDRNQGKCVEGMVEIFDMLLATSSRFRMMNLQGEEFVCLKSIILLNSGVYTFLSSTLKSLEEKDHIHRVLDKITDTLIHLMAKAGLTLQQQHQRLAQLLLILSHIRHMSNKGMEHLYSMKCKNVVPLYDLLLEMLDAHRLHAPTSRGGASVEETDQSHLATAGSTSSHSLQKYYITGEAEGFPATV

The nature of assay [15]: luciferase reporter signal suppression in cells – H4 neuroglioma cells, luminescence, dose response (AID 1990). The assay is classed as functional, cell-based.
Assay [16] in a line: luciferase reporter signal reduction – luminescence, H4-C neuroglioblastoma cells, dose response (AID 2458).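 Note: H4 neuroglioblastoma cells stably carrying a luciferase reporter gene fusion.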 The class given is functional, cell-based. Background: In a reporter assay the amount or activity of a reporter protein is the signal.
Assay [17] deals with HEK293. As to the kind of experiment: inhibition of NOD1-driven NF-kB reporter – cell-based, luminescence, uHTS, primary screen (AID 1578). The class given is functional. Particulars: Homo sapiens.
The test system of assay [18] is Streptococcus sp. 'group A'. The experiment in a line: Streptococcus pyogenes SK(-)GAS viability under kanamycin – luminescence, BacTiterGlo, confirmation, counter-screen for streptokinase expression inhibitor project, dose response (AID 1900). The class given is functional, organism-based.
Assay [19] has as its system HEK293. As to the kind of experiment: cells. Particulars: Homo sapiens. The class given is functional, cell-based.
The nature of assay [20]: cells. The assay is classed as functional, cell-based.
A short description of assay [21]: alpha-synuclein stem-loop luciferase translation blockers – H4 neuroglioma cells, luminescence, confirmation (AID 1988). The class given is functional, cell-based.
The subject of assay [22] is HEK293. The experiment in a line: cells. The class given is functional, cell-based. Particulars: Homo sapiens. The source holds these as a separate data set.
The target of assay [23] is Nucleotide-binding oligomerization domain-containing protein 2 (Homo sapiens, UniProt Q9HC29). The experiment in a line: inhibition of NOD2-driven NF-kB reporter – cell-based, luminescence, uHTS, HEK293 (AID 1566). The class given is functional.
Assay [24] has as its target T3, Mannose-6-phosphate isomerase (Homo sapiens, UniProt P34949).
T3 sequence (P34949 whole entry): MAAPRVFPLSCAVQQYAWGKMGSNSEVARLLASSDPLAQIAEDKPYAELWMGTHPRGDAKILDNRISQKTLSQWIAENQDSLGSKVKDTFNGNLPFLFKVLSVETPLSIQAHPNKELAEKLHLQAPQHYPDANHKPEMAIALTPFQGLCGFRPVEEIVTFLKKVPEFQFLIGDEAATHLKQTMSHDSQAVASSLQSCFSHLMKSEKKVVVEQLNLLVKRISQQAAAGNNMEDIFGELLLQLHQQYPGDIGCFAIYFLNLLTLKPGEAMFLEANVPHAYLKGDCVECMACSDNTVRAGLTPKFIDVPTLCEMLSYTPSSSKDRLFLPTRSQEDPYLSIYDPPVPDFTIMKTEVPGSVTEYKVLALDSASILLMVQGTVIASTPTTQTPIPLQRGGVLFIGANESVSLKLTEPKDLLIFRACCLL
As to the kind of experiment: MPI enzyme activity inhibition – biochemical, fluorescence intensity, coupled assay, primary screen (AID 1209).

The test system of assay [25] is HEK293. The experiment in a line: NOD2 signaling inhibitors in MDP-stimulated cells, cell-based, uHTS, luminescence (AID 2001). The assay is classed as functional. The conditions noted are these: Homo sapiens.
The nature of assay [26]: Trypanosoma cruzi growth suppression in host cells – NIH3T3 host cells, beta-gal luminescence, confirmation (AID 2044).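 Note: intracellular parasites grown in NIH/3T3 mouse fibroblasts as host cells; luminescent beta-galactosidase reporter signal from transgenic T. cruzi replicating inside host cells; inhibitors lower the luminescence signal.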 The class given is functional, cell-based.
Assay [27] relates to HEK293. As to the kind of experiment: cells. The class given is functional, cell-based. Particulars: Homo sapiens. This is another data set of the same source.
Assay [28] is described as follows: NIH3T3 cell viability loss – ATP luminescence, mouse fibroblasts, counter-screen, dose response (AID 2010).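 Note: cells exposed to compound for about 90 hours before reading.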 The assay is classed as functional, cell-based.
In another assay the test system is Streptococcus. The experiment in a line: GAS UMAA2166 growth inhibition – luminescence, BacTiterGlo, counter-screen for streptokinase expression inhibitor project, dose response (AID 1915).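 Note: potency for reduction of bacterial viability or growth.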 The class given is functional, organism-based.
For assay [29], the target named is T3, Mannose-6-phosphate isomerase. The experiment in a line: MPI inhibition at elevated mannose 6-phosphate – biochemical, fluorescence intensity, high mannose 6-phosphate, primary screen (AID 1220).
Assay [30] can be described thus: alpha-synuclein stem-loop translation blockers – luminescence, H4 neuroglioblastoma cells, dose confirmation, confirmation (AID 2454).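 Note: H4 neuroglioblastoma cells carrying an alpha-synuclein 5'UTR luciferase reporter; potency for inhibition of the luciferase signal.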 The assay is classed as functional, cell-based.
Another assay has as its system INS1. The experiment in a line: INS-1E survival protection against cytokine death – cell-based, luminescence, retest, dose response (AID 449756).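 Note: cell death triggered by IL-1 beta plus TNF-alpha plus IFN-gamma mixture; protective hits raise ATP signal compared with cytokine alone wells.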 The assay is classed as functional. The conditions noted are these: Rattus norvegicus.
A further assay has as its target NADPH oxidase 1 (Homo sapiens, UniProt Q9Y5S8). The assay is classed as functional, cell-based.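 Note: Cell-based assay with luminescence read-out, IC50 derived from inhibitor dose-response curves; intracellular ROS from endogenous NOX1 in intact HT29 colon cancer cells; potency of inhibitors that lower the ROS luminescence signal.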
For assay [31], the target named is T4, Cytochrome P450 2C19 (Homo sapiens, UniProt P33261). The experiment in a line: qHTS Assay for Inhibitors and Substrates of Cytochrome P450 2C19. [Related pubchem assays: 410 ]. The conditions noted are these: read-out: Potency. The assay is classed as ADME.
The target of assay [32] is T4, Cytochrome P450 2C19. As to the kind of experiment: Cytochrome panel assay with activity outcomes. Panel member name: p450-cyp2c19 Compounds with AC50 equal or less than 10 uM are considered active. The assay is classed as functional. The conditions noted are these: read-out: AC50.
Another assay concerns the target Cytochrome P450 2D6 (Homo sapiens, UniProt P10635).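 Note: CYP2D6 member of a cytochrome P450 panel assay.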

The structures appear in SMILES notation. The source made the active and inactive calls. Where only a bound is given, the exact number is not on record here.

T4 sequence (P33261 whole entry): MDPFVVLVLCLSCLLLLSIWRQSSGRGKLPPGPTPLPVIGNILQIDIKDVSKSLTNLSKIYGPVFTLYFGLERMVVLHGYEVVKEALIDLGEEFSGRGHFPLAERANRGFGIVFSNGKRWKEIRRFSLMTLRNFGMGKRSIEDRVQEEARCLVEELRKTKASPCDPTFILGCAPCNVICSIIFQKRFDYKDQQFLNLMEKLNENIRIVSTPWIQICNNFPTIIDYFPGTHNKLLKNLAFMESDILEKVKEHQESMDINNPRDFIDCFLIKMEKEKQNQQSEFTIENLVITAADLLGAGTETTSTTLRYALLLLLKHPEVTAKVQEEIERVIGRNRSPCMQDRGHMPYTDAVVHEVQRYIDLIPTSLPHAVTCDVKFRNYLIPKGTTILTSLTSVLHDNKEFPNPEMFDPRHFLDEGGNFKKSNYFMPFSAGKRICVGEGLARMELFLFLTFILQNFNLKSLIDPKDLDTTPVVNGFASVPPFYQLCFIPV
Chain of Phospholipase A2 (P04054 whole entry): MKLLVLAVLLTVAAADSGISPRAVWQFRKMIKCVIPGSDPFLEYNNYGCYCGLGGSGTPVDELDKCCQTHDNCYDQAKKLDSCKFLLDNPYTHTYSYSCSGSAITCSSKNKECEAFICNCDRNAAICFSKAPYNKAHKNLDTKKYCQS
Chain of Cytochrome P450 2D6 (P10635 whole entry): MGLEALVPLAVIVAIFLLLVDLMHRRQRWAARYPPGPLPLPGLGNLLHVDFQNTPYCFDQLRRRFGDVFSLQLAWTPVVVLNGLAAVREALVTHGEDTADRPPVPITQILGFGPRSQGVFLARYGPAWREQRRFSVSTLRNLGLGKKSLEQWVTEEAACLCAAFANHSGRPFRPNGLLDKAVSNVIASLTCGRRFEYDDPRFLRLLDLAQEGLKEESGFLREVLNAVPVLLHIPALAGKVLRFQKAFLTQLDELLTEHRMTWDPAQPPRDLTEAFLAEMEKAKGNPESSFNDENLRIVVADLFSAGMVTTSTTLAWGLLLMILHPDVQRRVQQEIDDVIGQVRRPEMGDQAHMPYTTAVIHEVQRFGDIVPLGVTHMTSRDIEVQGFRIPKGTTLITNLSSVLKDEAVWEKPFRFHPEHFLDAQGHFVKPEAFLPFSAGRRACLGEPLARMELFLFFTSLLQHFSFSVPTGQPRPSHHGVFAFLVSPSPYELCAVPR
Chain of Cysteine protease ATG4B (Q9Y4P1 whole entry): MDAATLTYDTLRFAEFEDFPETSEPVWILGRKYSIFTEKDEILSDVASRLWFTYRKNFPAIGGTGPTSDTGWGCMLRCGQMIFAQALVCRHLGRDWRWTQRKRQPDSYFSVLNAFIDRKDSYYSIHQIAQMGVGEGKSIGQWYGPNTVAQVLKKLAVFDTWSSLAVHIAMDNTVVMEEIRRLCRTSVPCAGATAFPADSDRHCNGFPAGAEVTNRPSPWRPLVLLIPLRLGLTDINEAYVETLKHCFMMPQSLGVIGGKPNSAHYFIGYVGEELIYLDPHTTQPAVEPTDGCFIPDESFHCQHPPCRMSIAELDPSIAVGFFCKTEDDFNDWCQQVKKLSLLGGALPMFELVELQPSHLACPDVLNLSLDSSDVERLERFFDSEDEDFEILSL
Chain of FAD-linked sulfhydryl oxidase ALR (P55789 whole entry): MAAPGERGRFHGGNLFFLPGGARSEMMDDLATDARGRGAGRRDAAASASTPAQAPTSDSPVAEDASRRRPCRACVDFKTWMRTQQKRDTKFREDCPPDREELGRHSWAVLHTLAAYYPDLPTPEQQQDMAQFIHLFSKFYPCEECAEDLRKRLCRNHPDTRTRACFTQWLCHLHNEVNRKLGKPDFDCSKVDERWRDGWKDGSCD
Chain of Peroxisome proliferator-activated receptor gamma/Nuclear receptor coactivator 3 (P37231 whole entry): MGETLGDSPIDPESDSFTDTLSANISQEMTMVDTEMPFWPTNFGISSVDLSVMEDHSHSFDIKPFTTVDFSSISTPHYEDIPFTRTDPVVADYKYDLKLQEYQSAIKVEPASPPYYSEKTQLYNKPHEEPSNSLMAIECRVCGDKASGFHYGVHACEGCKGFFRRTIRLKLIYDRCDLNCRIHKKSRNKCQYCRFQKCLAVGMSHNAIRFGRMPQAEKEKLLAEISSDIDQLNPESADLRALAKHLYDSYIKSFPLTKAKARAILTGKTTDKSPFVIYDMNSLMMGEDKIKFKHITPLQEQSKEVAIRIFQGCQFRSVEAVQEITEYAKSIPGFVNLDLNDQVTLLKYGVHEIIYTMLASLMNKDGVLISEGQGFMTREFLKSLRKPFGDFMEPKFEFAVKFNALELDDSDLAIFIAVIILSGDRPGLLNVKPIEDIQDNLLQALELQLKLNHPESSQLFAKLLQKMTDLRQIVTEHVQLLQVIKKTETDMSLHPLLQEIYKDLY
Chain of Peroxisome proliferator-activated receptor gamma/Nuclear receptor coactivator 3 (Q9Y6Q9 whole entry, further chain): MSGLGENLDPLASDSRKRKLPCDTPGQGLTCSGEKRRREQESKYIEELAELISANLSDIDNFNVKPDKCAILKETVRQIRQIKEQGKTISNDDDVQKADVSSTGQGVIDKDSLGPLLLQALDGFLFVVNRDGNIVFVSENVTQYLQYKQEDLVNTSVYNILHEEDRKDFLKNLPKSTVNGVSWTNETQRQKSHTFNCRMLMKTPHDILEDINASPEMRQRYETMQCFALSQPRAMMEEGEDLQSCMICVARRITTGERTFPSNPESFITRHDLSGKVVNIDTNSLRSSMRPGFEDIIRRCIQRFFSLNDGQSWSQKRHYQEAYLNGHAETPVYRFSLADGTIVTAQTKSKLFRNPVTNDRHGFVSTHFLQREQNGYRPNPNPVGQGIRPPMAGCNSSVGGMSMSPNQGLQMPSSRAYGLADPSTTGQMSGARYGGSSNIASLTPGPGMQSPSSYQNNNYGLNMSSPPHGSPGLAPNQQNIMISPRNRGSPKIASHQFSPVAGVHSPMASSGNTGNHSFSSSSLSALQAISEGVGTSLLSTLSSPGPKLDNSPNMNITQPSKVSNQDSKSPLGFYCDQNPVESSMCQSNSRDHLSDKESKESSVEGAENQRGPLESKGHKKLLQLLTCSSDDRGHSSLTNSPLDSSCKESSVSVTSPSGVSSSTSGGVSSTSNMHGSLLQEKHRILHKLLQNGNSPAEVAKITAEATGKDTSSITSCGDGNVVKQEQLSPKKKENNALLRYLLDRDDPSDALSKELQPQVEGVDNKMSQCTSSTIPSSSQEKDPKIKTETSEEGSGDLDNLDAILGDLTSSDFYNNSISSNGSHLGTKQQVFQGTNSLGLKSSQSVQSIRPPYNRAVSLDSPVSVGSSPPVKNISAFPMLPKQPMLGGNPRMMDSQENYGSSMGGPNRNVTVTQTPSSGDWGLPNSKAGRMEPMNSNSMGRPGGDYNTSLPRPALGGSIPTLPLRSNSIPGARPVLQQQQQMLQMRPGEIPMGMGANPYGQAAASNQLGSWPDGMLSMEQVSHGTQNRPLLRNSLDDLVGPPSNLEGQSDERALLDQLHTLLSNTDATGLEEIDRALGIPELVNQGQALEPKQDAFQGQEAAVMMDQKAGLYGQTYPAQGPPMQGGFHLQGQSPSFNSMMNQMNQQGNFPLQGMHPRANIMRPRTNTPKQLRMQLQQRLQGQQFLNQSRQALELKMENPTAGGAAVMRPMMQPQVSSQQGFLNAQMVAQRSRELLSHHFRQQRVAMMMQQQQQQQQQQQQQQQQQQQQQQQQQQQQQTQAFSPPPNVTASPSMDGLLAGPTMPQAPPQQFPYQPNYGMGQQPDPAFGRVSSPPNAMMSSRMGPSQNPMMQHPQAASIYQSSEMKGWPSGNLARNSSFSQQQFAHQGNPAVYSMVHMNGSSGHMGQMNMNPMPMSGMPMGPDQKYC
Chain of Nucleotide-binding oligomerization domain-containing protein 2 (Q9HC29 whole entry, the tested form may be a part): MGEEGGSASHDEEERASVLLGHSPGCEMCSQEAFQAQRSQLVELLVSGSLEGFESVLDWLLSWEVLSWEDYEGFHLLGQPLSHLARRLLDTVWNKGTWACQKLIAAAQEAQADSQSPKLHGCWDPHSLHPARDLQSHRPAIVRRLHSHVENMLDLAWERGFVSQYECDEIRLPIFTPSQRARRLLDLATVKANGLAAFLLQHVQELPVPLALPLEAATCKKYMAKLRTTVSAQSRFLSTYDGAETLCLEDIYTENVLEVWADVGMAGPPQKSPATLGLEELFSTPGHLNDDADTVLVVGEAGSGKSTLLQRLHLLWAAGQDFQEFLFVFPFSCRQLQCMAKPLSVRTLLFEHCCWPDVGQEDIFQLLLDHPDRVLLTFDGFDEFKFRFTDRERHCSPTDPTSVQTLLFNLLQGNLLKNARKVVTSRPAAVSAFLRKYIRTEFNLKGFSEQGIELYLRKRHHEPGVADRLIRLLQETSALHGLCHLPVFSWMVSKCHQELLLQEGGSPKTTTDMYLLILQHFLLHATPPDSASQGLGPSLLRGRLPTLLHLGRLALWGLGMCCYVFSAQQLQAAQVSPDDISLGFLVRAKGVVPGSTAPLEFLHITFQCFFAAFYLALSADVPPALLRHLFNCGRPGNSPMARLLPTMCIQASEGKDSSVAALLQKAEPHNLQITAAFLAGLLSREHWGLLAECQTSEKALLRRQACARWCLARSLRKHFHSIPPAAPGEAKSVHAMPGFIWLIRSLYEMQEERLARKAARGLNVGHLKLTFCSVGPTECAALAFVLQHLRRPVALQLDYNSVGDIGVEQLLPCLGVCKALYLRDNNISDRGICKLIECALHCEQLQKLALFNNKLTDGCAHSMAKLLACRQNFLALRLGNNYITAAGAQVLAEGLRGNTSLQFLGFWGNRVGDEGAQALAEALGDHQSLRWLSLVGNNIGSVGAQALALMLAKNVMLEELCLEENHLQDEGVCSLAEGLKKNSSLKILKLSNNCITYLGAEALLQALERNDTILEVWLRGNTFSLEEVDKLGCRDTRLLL

Take `C[C@@H]1CN(C2=C(Cl)C(=O)N(c3ccc(Cl)c(Cl)c3)C2=O)CCN1`: the 50% inhibitory concentration (IC50) – broadly, the point on the concentration scale where inhibition reaches its midpoint – at Bcl-2-related protein A1 [1] is 1.03 µM (active); at Bcl-2-related protein A1 [2], 1.16 µM (active).

With `O=C1NN(c2ccccc2)C(=O)/C1=C/c1ccc(Sc2cccc3ccccc23)o1`, the EC50 (as a rule, the concentration that produces a half-maximal response) is > 79.4 µM (inactive) in assay [3], > 79.4 µM (not active) in assay [4] and 92.2 µM (not active) in assay [5]. For the same compound, the IC50 on NS3 is 5.55 µM (active); at Cysteine protease ATG4B, 8.56 µM (active); at Phospholipase A2, 8.08 µM (active); in assay [6] it was 7.12 µM (active).

Regarding `O=C(O)c1ccc(SCc2cnc(Cl)s2)cc1`, the EC50 in [7] is recorded as > 120 µM (not active).

As to `CCN(CCNC(=O)C1CCN(Cc2nc(-c3cccc(Cl)c3)oc2C)CC1)c1ccccc1`, the 50% effective concentration (EC50) is > 20 µM (not active) in assay [8], > 20 µM (not active) in assay [9], 13.3 µM (active) in assay [10] and 10.7 µM (active) in assay [11]. Also, the AC50 in [12] is 0.024 µM (active).

Turning to `O=c1oc(-c2cccs2)nc2c1cnn2-c1ccccc1`, the 50% inhibitory concentration (IC50) in [13] is > 100 µM (active); in the assay “cells [14]”, 4.92 µM (active).

For the compound `CCCc1cc(-n2ccnc2)n2c(nc3ccccc32)c1C#N`, the half-inhibitory concentration (IC50) on Estrogen receptor is 29.8 µM (active).

In the case of `Oc1c(CN2CCN(c3ccccn3)CC2)cc(Cl)c2cccnc12`, the EC50 in assay [15] is 2.52 µM (active); in assay [16] it was 10.7 µM (active); in the assay on HEK293 [17], 4.58 µM (active); in [18] it was 3.06 µM (active); in “cells [20]”, > 12 µM (inconclusive); in assay [21] it was < 0.1 µM (active). Also, the EC50 in [23] was 8.07 µM (active); in assay [26], 0.942 µM (active); in assay [28], 7.32 µM (active); in the assay on Streptococcus, 5.45 µM (active); in assay [30], > 12 µM (not active). Moreover, the concentration for half-maximal inhibition (IC50) was 6.23 µM (active) with HEK293 [19]; > 20 µM (inactive) in the assay with HEK293 [22]; > 50 µM (not active) in [24]; 4.88 µM (inactive) with HEK293 [25]; > 20 µM (inactive) with HEK293 [27]; > 50 µM (not active) in assay [29]. The AC50 in the assay on INS1 was 1.99 µM (active).

For the compound `Cc1ccc(-c2nc(-c3ccccc3)c(-c3ccccc3)[nH]2)cc1`, the half-maximal inhibitory concentration (IC50) against NADPH oxidase 1 is > 17 µM (not active).

With `O=[N+]([O-])c1cccc2c(Br)n[nH]c12`, the AC50 at Cytochrome P450 2C19 [31] was 0.001 µM (inconclusive); on Cytochrome P450 2C19 [32], 0.251 µM (inconclusive); on Cytochrome P450 2D6 it was 0.251 µM (inconclusive).

The values above are taken from ChEMBL document CHEMBL1201862, “PubChem BioAssay data set” (2004).
